# Measurements as given in PMC6288363, “A Novel Selective JAK2 Inhibitor Identified Using Pharmacological Interactions” (Frontiers in Pharmacology, 2018).
# Assays:
# JAK3 = target: T1, JAK3 (Homo sapiens, UniProt P52333); assay: KINOMEscan bead-based competition Kd; format: binding
# T1 sequence (P52333 1-1124): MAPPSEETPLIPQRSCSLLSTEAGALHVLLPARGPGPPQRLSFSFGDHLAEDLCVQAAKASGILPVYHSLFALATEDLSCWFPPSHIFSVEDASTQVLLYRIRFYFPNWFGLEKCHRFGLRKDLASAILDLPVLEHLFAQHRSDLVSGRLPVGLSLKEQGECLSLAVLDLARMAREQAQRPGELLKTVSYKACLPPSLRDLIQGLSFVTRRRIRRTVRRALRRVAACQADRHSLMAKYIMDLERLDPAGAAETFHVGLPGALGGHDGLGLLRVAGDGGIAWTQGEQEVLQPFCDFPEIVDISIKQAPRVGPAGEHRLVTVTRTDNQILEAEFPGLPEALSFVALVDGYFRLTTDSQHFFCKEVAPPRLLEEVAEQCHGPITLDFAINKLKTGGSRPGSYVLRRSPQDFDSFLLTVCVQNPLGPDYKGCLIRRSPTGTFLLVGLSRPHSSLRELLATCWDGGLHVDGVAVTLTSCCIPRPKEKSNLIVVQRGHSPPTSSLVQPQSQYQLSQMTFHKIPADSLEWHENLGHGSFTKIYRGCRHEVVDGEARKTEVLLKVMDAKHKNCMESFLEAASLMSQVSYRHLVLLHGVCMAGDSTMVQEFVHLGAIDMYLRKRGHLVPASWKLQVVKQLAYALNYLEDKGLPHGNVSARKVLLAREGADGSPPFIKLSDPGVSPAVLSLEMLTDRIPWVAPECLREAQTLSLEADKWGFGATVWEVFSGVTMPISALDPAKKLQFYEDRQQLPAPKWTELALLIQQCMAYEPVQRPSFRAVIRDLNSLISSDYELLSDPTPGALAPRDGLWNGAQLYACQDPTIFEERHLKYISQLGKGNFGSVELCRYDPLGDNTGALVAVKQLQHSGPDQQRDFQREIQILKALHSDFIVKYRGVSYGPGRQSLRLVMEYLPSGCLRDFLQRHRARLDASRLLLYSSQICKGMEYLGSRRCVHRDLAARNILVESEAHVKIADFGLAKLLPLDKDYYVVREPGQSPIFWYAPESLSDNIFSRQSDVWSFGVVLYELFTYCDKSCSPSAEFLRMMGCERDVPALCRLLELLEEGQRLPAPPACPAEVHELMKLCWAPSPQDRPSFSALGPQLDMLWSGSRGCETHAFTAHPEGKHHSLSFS
# JAK2 = target: T2, JAK2 (Homo sapiens, UniProt O60674); assay: KINOMEscan bead-based competition Kd; also Z'LYTE kinase assay, […] inhibition at […]; format: binding
# T2 construct: JH1 domain
# T2 sequence (O60674 840-1132 limits assumed): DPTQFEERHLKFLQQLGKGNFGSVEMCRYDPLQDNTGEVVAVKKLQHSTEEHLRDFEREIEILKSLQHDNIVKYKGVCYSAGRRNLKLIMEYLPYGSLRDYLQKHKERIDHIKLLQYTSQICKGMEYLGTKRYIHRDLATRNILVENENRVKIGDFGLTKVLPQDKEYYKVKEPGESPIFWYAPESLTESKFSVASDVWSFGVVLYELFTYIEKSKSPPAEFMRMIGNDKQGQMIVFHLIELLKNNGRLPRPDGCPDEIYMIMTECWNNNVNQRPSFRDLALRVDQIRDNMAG
smiles,measurement,setting,value
CCN(CC)CC[C@H](CNc1ccnc2cc(Cl)ccc12)c1ccc(O)cc1 [NSC13626],Kd,JAK3,4.6 µM
same,Kd,JAK2,6.6 µM
